Source: US7019034B2, “Compositions and methods for reducing serum glucose and triglyceride levels in diabetic mammals” (Allergan, Inc., priority 2003, dated 2006)

Legend:
RARβ [1] = biological target: T1, RARβ (Homo sapiens, UniProt P10826); assay: chimeric receptor transactivation assay, RARβ; assay type: cell-based; conditions: for EC50: NA = not active at all as an agonist, read-out: RAR Trans. EC50 β; for RAR β efficacy in percentage as compared to the standard compound: number in brackets
T1 sequence (P10826 183-417 limits assumed): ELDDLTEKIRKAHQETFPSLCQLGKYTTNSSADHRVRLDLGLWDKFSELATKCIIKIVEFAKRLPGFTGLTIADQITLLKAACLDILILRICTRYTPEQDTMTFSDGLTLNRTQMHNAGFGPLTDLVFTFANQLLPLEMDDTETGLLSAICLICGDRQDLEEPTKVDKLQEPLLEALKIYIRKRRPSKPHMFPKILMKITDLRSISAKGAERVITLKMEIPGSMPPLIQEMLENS
Description: The specification of U.S. Pat. No. 5,455,265 is hereby expressly incorporated by reference.
Table 1 discloses the activity of certain exemplary compounds of the invention in the above-described receptor transactivation and binding assays. Particularly, the transactivation data pertaining to activation of the RAR receptors were obtained in the chimeric assay, and the transactivation data pertaining to the activation of RXR receptors were obtained in the holoreceptor assay.
Efficacy in a transactivation assay is expressed as a percentage of the maximum potency attained by the compound compared to a standard which, in this case, is the compound named (2E,4E,1′S,2′S)-3-methyl-5-[2′-methyl-2′-(5,5,8,8-tetramethyl-5,6,7,8-tetrahydro-naphthalen-2-yl)-cyclopropyl]-penta-2,4-dienoic acid.
(§1) In Table 1 NA stands for not active at all as an agonist. ND stands for not determined. The first row of numbers pertaining to each compound is the measured EC50 number. […] The third row of numbers pertaining to each compound is the binding Ki number.

RXRβ [2] = biological target: T2, RXRβ (UniProt P28704); assay: holoreceptor transactivation assay, RXRβ; assay type: cell-based; conditions: for RXR β efficacy in percentage as compared to the standard compound / EC50: holoreceptor assay; for RXR β efficacy in percentage as compared to the standard compound: number in brackets; for EC50: read-out: RXR Trans. EC50 β; for efficacy in activating RXRβ compared with RXRα and RXRγ subtypes (in words): transactivation, Table 1
T2 sequence (P28704 1-520): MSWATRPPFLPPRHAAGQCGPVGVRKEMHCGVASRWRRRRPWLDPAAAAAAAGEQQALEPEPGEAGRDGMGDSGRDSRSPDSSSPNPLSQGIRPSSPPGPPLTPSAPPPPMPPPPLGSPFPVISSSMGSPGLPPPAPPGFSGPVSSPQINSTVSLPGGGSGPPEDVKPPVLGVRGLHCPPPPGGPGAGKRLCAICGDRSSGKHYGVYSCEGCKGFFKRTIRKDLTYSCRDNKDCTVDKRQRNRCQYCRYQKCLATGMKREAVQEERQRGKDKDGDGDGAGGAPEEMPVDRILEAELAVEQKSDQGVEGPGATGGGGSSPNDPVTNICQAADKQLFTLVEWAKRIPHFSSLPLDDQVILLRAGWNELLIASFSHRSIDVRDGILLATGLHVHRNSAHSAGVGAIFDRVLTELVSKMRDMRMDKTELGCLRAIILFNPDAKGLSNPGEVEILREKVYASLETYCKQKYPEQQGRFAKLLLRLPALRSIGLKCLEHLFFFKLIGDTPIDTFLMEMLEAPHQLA
Description: The results obtained in this assay are expressed in EC50 numbers, as they are also in the chimeric receptor transactivation assay. The results of the ligand binding assay are expressed in Ki numbers.
Particularly, the transactivation data pertaining to activation of the RAR receptors were obtained in the chimeric assay, and the transactivation data pertaining to the activation of RXR receptors were obtained in the holoreceptor assay.
as §1

RARβ [3] = biological target: T3, RARβ (Homo sapiens, UniProt P10826); assay: ligand binding assay, RARβ; conditions: read-out: RAR Bind. Ki β
T3 sequence (P10826 1-455): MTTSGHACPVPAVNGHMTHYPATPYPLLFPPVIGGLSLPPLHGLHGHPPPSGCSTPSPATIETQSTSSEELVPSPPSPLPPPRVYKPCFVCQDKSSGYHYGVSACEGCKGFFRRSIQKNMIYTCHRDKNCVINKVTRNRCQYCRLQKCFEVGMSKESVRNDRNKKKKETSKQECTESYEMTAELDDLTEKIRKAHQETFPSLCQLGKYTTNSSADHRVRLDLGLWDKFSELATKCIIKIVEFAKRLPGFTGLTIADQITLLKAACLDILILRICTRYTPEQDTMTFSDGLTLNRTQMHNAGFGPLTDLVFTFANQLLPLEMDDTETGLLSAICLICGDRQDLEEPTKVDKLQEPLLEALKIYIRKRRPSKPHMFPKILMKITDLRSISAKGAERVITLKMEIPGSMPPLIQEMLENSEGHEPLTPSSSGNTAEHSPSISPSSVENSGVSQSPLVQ
Description: (§2) A holoreceptor transactivation assay and a ligand binding assay which measure the antagonist/agonist like activity of the compounds of the invention, or their ability to bind to the several retinoid receptor subtypes, respectively, are described in published PCT Application No. WO WO93/11755 (particularly on pages 30–33 and 37–41) published on Jun. 24, 1993, the specification of which is also incorporated herein by reference. […] The results obtained in this assay are expressed in EC50 numbers, as they are also in the chimeric receptor transactivation assay. The results of the ligand binding assay are expressed in Ki numbers. (See Cheng et al. Biochemical Pharmacology Vol. 22 pp 3099–3108, expressly incorporated herein by reference.)
as §1

RXRα = biological target: T4, RXRα (Homo sapiens, UniProt P19793); assay: ligand binding assay, RXRα; conditions: read-out: RXR Bind Ki α
T4 construct: expressed in transfected cells
T4 sequence (P19793 1-462): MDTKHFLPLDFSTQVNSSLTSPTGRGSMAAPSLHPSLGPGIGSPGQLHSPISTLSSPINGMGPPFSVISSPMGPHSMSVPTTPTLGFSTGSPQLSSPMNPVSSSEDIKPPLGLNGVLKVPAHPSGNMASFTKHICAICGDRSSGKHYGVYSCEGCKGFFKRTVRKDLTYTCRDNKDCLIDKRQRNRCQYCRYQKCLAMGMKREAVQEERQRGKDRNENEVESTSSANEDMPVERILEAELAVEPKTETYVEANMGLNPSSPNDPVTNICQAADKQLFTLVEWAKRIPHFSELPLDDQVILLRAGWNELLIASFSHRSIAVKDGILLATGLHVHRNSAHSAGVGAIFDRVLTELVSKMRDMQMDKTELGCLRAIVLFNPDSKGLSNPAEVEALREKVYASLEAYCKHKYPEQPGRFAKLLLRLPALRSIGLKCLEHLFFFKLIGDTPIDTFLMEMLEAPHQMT
Description: as §2, §1

RXRβ [4] = biological target: T2, RXRβ; assay: ligand binding assay, RXRβ; conditions: read-out: RXR Bind Ki β
Description: as §2, §1

Structure (SMILES) | EC50 (RARβ [1]) [nM] | RAR β efficacy in percentage as compared to the standard compound (RARβ [1]) [%] | RXR β efficacy in percentage as compared to the standard compound (RXRβ [2]) [%] | EC50 (RXRβ [2]) [nM] | efficacy in activating RXRβ compared with RXRα and RXRγ subtypes (in words) (RXRβ [2]) | Ki (RARβ [3]) [nM] | Ki (RXRα) [nM] | Ki (RXRβ [4]) [nM]
CCCOc1cc2c(cc1\C(C)=C(F)/C=C/C(C)=C/C(=O)O)C(C)(C)CCC2(C)C [Compound 4] | 185 | 16 | 24 | 62 | significantly more effective in activating the RXRβ subtype | 490 | 6 | 57
CCOc1cc2c(cc1\C(CC)=C(F)/C=C/C(C)=C/C(=O)O)C(C)(C)CCC2(C)C [Compound 2, (2E,4E,6E)-7-(3-Ethoxy-5,5,8,8-tetramethyl-5,6,7,8-tetrahydronaphthalen-2-yl)-6-fluoro-3-methylnona-2,4,6-trienoic acid] | 250 | 11 | 46 | 36 | significantly more effective in activating the RXRβ subtype | 540 | 22 | 23
